Measured values reported in ChEMBL document CHEMBL1134054, “p38 kinase inhibitors for the treatment of arthritis and osteoporosis: thienyl, furyl, and pyrrolyl ureas” (Bioorg Med Chem Lett, 2001).

Biological target: T1, Mitogen-activated protein kinase 14 (Homo sapiens, UniProt Q16539)
Test: Inhibition of p38 alpha-2 kinase
Conditions: not given

T1 sequence (Q16539 whole entry): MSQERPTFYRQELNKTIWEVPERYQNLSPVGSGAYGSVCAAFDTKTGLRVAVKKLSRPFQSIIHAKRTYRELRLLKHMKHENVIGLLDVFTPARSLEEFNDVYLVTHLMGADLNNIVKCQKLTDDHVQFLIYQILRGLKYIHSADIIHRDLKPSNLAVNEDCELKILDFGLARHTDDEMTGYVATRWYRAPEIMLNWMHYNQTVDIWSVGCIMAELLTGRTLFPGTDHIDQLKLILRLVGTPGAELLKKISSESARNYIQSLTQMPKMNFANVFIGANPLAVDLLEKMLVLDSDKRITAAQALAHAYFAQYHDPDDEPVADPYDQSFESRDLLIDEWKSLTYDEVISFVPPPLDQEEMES

IC50 [µM]	SMILES
0.248	COC(=O)c1sc(C(C)(C)C)cc1NC(=O)Nc1ccc(C)cc1

Biological target: T1, Mitogen-activated protein kinase 14
Test: Percent inhibition determined in vitro against mitogen-activated protein kinase p38 alpha 2 derived from Escherichia coli at 5 uM
Conditions: not given

inhibition [%]	SMILES
63	CNC(=O)c1sc(C(C)(C)C)cc1NC(=O)Nc1ccc(C(C)C)cc1
42	COC(=O)c1c(NC(=O)Nc2ccc(F)cc2)cc(C(C)(C)C)n1C
17	COC(=O)c1sc(CCc2ccccc2)cc1NC(=O)Nc1ccc(C)cc1
10	COC(=O)c1sc(C(C)(C)C)cc1NC(=O)Nc1ccc(C(C)C)cc1
4	COC(=O)c1sc(C(C)(C)C)cc1NC(=O)Nc1ccc(C(=O)O)cc1
95	COC(=O)c1[nH]c(C(C)(C)C)cc1NC(=O)Nc1cccc(Cl)c1
79	COC(=O)c1sc(C(C)(C)C)cc1NC(=O)Nc1cccc(Cl)c1Cl
0	COC(=O)c1sc(CC(C)C)cc1NC(=O)Nc1ccc(C)cc1
32	COC(=O)c1c(NC(=O)Nc2ccccc2)cc(C(C)(C)C)n1C
0	COC(=O)c1sc([N+](=O)[O-])cc1NC(=O)Nc1ccc(C)cc1
96	CNC(=O)c1[nH]c(C(C)(C)C)cc1NC(=O)Nc1cccc2ccccc12
40	COC(=O)c1sc(C(C)(C)C)cc1NC(=O)Nc1ccc(N)cc1
67	COC(=O)c1c(NC(=O)Nc2cccc3ccccc23)cc(C(C)(C)C)n1C
99	COC(=O)c1[nH]c(C(C)(C)C)cc1NC(=O)Nc1cccc(Cl)c1Cl
8	COC(=O)c1sc(CCC(C)C)cc1NC(=O)Nc1ccc(C)cc1
16	COC(=O)c1sc(C(C)(C)C)cc1NC(=O)Nc1ccc([N+](=O)[O-])cc1
95	CNC(=O)c1[nH]c(C(C)(C)C)cc1NC(=O)Nc1cccc(Cl)c1Cl
80	CNC(=O)c1sc(C(C)(C)C)cc1NC(=O)Nc1ccc(F)cc1
68	COC(=O)c1sc(C(C)(C)C)cc1NC(=O)Nc1ccccc1
6	COC(=O)c1sc(C(C)(C)C)cc1NC(=O)Nc1ccc(-c2ccccc2)cc1

inhibition [%]	SMILES
76	COC(=O)c1sc(C(C)(C)C)cc1NC(=O)Nc1ccc(Cl)cc1
8	COC(=O)c1sc(C(C)(C)C)cc1NC(=O)Nc1ccc(OC)cc1
90	COC(=O)c1sc(N)cc1NC(=O)Nc1ccc(C)cc1
85	COC(=O)c1[nH]c(C(C)(C)C)cc1NC(=O)Nc1ccccc1Cl
94	COC(=O)c1sc(C(C)(C)C)cc1NC(=O)Nc1ccc(C)cc1
37	COC(=O)c1sc(C(C)C)cc1NC(=O)Nc1ccc(C)cc1
70	CCc1ccc(NC(=O)Nc2cc(C(C)(C)C)sc2C(=O)NC)cc1
21	COC(=O)c1sc(C(C)(C)C)cc1NC(=O)Nc1ccc(C(C)=O)cc1
50	COC(=O)c1c(NC(=O)Nc2cccc(Cl)c2Cl)cc(C(C)(C)C)n1C
0	COC(=O)c1sc(-c2ccccc2)cc1NC(=O)Nc1ccc(C)cc1
44	COC(=O)c1sc(C(C)(C)C)cc1NC(=O)Nc1ccc(O)cc1
34	COC(=O)c1sc(C(C)(C)O)cc1NC(=O)Nc1ccc(C)cc1
40	CCc1ccc(NC(=O)Nc2cc(C(C)(C)C)sc2C(=O)OC)cc1
92	COC(=O)c1[nH]c(C(C)(C)C)cc1NC(=O)Nc1ccc(Cl)cc1
35	COC(=O)c1sc(C(C)(C)C)cc1NC(=O)Nc1ccc(F)cc1
97	COC(=O)c1oc(C(C)(C)C)cc1NC(=O)Nc1cccc(Cl)c1Cl
67	COC(=O)c1oc(C(C)(C)C)cc1NC(=O)Nc1ccc(F)cc1
23	COC(=O)c1sc(C(C)(C)C)cc1NC(=O)Nc1ccc(NC(C)=O)cc1
89	COC(=O)c1[nH]c(C(C)(C)C)cc1NC(=O)Nc1ccc(F)cc1

Biological target: T1, Mitogen-activated protein kinase 14
Test: Inhibition of Mitogen-activated protein kinase p38 alpha 2
Conditions: not given

IC50 [µM]	SMILES
5.31	COC(=O)COC(=O)c1sc(C(C)(C)C)cc1NC(=O)Nc1ccc(C)cc1
0.056	Cc1ccc(NC(=O)Nc2cc(C(C)(C)C)sc2C(=O)OCCCO)cc1
0.057	Cc1ccc(NC(=O)Nc2cc(C(C)(C)C)sc2C(=O)OCCO)cc1
0.482	CCCOC(=O)c1sc(C(C)(C)C)cc1NC(=O)Nc1ccc(C)cc1
0.464	COCCOC(=O)c1sc(C(C)(C)C)cc1NC(=O)Nc1ccc(C)cc1
0.441	COC(=O)c1sc(N)cc1NC(=O)Nc1ccc(C)cc1
0.413	COC(=O)c1sc(C(C)(C)C)cc1NC(=O)Nc1ccc(C)cc1
0.741	Cc1ccc(NC(=O)Nc2cc(C(C)(C)C)sc2C(=O)OC(C)C)cc1
3.02	CCOC(=O)c1sc(C(C)(C)C)cc1NC(=O)Nc1ccc(C)cc1
0.034	CNC(=O)c1sc(C(C)(C)C)cc1NC(=O)Nc1ccc(C)cc1

Test system: SW1353
Test: Inhibition of IL-6 production by SW1353 cells treated with both cytokines IL-1 and TNF-alpha.
Type: functional, cell-based
Conditions: Homo sapiens

IC50 [µM]	SMILES
0.035	CNC(=O)c1[nH]c(C(C)(C)C)cc1NC(=O)Nc1cccc2ccccc12
0.079	COC(=O)c1[nH]c(C(C)(C)C)cc1NC(=O)Nc1cccc(Cl)c1Cl
0.309	COC(=O)c1[nH]c(C(C)(C)C)cc1NC(=O)Nc1cccc2ccccc12
0.016	CNC(=O)c1[nH]c(C(C)(C)C)cc1NC(=O)Nc1cccc(Cl)c1Cl
1.14	COC(=O)c1[nH]c(C(C)(C)C)cc1NC(=O)Nc1ccc(C)cc1
0.015	CNC(=O)c1[nH]c(C(C)(C)C)cc1NC(=O)Nc1ccc(C)cc1
0.905	COC(=O)c1sc(C(C)(C)C)cc1NC(=O)Nc1ccc(C)cc1
0.335	COC(=O)c1oc(C(C)(C)C)cc1NC(=O)Nc1ccc(C)cc1
0.464	COC(=O)c1[nH]c(C(C)(C)C)cc1NC(=O)Nc1ccc(F)cc1
1.35	CNC(=O)c1sc(C(C)(C)C)cc1NC(=O)Nc1ccc(C)cc1

Biological target: T1, Mitogen-activated protein kinase 14
Test: In vitro inhibition of mitogen-activated protein kinase p38 alpha 2 derived from Escherichia coli
Conditions: not given

IC50 [µM]	SMILES
0.27	CNC(=O)c1sc(C(C)(C)C)cc1NC(=O)Nc1ccc(C(C)C)cc1
0.663	COC(=O)c1c(NC(=O)Nc2ccc(F)cc2)cc(C(C)(C)C)n1C
0.027	COC(=O)c1[nH]c(C(C)(C)C)cc1NC(=O)Nc1cccc(Cl)c1
0.18	COC(=O)c1sc(C(C)(C)C)cc1NC(=O)Nc1cccc(Cl)c1Cl
1.2	COC(=O)c1oc(C(C)(C)C)cc1NC(=O)Nc1ccc(Cl)c(Cl)c1
0.947	COC(=O)c1c(NC(=O)Nc2ccccc2)cc(C(C)(C)C)n1C
0.028	CNC(=O)c1[nH]c(C(C)(C)C)cc1NC(=O)Nc1cccc2ccccc12
0.75	COC(=O)c1sc(C(C)(C)C)cc1NC(=O)Nc1ccc(N)cc1
0.253	COC(=O)c1c(NC(=O)Nc2cccc3ccccc23)cc(C(C)(C)C)n1C
0.006	COC(=O)c1[nH]c(C(C)(C)C)cc1NC(=O)Nc1cccc(Cl)c1Cl
0.012	COC(=O)c1[nH]c(C(C)(C)C)cc1NC(=O)Nc1cccc2ccccc12
0.044	CNC(=O)c1[nH]c(C(C)(C)C)cc1NC(=O)Nc1cccc(Cl)c1Cl
0.088	CNC(=O)c1sc(C(C)(C)C)cc1NC(=O)Nc1ccc(F)cc1
0.29	COC(=O)c1sc(C(C)(C)C)cc1NC(=O)Nc1ccccc1
0.22	COC(=O)c1sc(C(C)(C)C)cc1NC(=O)Nc1ccc(Cl)cc1
0.033	COC(=O)c1[nH]c(C(C)(C)C)cc1NC(=O)Nc1ccc(C)cc1

IC50 [µM]	SMILES
0.032	CNC(=O)c1oc(C(C)(C)C)cc1NC(=O)Nc1ccc(C)cc1
0.06	COC(=O)c1[nH]c(C(C)(C)C)cc1NC(=O)Nc1ccccc1Cl
0.067	CNC(=O)c1[nH]c(C(C)(C)C)cc1NC(=O)Nc1ccc(C)cc1
0.119	CCc1ccc(NC(=O)Nc2cc(C(C)(C)C)sc2C(=O)NC)cc1
0.073	COC(=O)c1oc(C(C)(C)C)cc1NC(=O)Nc1ccc(C)cc1
0.387	COC(=O)c1c(NC(=O)Nc2cccc(Cl)c2Cl)cc(C(C)(C)C)n1C
0.61	COC(=O)c1sc(C(C)(C)C)cc1NC(=O)Nc1ccc(O)cc1
0.4	COC(=O)c1c(NC(=O)Nc2ccc(C)cc2)cc(C(C)(C)C)n1C
0.66	CCc1ccc(NC(=O)Nc2cc(C(C)(C)C)sc2C(=O)OC)cc1
0.043	COC(=O)c1[nH]c(C(C)(C)C)cc1NC(=O)Nc1ccc(Cl)cc1
0.83	COC(=O)c1sc(C(C)(C)C)cc1NC(=O)Nc1ccc(F)cc1
0.032	COC(=O)c1oc(C(C)(C)C)cc1NC(=O)Nc1cccc(Cl)c1Cl
0.21	COC(=O)c1oc(C(C)(C)C)cc1NC(=O)Nc1ccc(F)cc1
0.044	COC(=O)c1[nH]c(C(C)(C)C)cc1NC(=O)Nc1ccccc1
0.042	COC(=O)c1[nH]c(C(C)(C)C)cc1NC(=O)Nc1ccc(F)cc1
